A short description of data set [1]: cells. The class given is functional, cell-based.
Data set [2] can be described thus: cells. It counts as functional, cell-based. The source holds these as a separate data set.
Data set [3] can be described thus: cells. The class given is functional, cell-based. This is another data set of the same source.
Data set [4] addresses T1, Trace amine-associated receptor 1 (Homo sapiens, UniProt Q96RJ0).
T1 sequence (Q96RJ0 whole entry): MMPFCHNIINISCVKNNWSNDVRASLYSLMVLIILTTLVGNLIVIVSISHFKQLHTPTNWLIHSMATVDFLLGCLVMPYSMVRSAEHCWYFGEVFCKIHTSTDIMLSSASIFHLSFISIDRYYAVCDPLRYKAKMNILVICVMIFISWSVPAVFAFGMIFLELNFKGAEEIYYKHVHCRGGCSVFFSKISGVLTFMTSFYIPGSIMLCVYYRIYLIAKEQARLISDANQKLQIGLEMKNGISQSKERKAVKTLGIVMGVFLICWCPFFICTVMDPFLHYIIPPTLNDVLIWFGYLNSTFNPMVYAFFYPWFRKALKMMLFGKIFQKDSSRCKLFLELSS
The data set can be described thus: Counterscreen for agonists of the human trace amine associated receptor 1 (hTAAR1): Fluorescence-based cell-based high throughput dose response assay to identify hTAAR1 agonist that also desensitize TAAR1 receptor response. The class given is functional.

Data set [5] has as its target T1, Trace amine-associated receptor 1. The data set can be described thus: Fluorescence-based cell-based high throughput dose response assay to identify agonists of the human trace amine associated receptor 1 (TAAR1). It counts as functional.
The nature of data set [6]: cells. The class given is functional, cell-based. The source holds these as a separate data set.
The target in data set [7] is Peroxisome proliferator-activated receptor gamma/Nuclear receptor coactivator 1 (Homo sapiens, UniProt P37231). The data set can be described thus: TR-FRET dose response biochemical High Throughput Screening assay for agonists of the steroid receptor coactivator 1 (SRC-1) recruitment by the peroxisome proliferator-activated receptor gamma (PPAR gamma): non-selective agonists. [Related pubchem assays (depositor defined):AID1300, AID1808, AID504735, AID631]. The class given is protein assay.

A short description of data set [8]: HEK-293T cell viability reduction – luminescence, B-cell screen hits, cytotoxicity control for BCR NF-kB inhibitor project, dose response (AID 489021).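 Further: HEK-293T cells carrying an NF-kB luciferase reporter; cells exposed to compound for about 14 hours before viability readout.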 The class given is functional, cell-based.
For data set [9], the target named is Peroxisome proliferator-activated receptor gamma/Nuclear receptor coactivator 3 (Homo sapiens, UniProt P37231). The data set can be described thus: TR-FRET dose response biochemical High Throughput Screening assay for agonists of the steroid receptor coactivator 3 (SRC-3) recruitment by the peroxisome proliferator-activated receptor gamma (PPAR gamma): non-selective agonists. [Related pubchem assays: 1301 (Confirmation screen.), 1048 (Primary screen.)]. The class given is functional.

For data set [10], the target named is Peroxisome proliferator-activated receptor gamma/Nuclear receptor coactivator 2 (Homo sapiens, UniProt P37231). The data set can be described thus: TR-FRET dose response biochemical High Throughput Screening assay for agonists of the steroid receptor coactivator 2 (SRC-2) recruitment by the peroxisome proliferator-activated receptor gamma (PPAR gamma): non-selective agonists. [Related pubchem assays: 1297, 1032 ]. The class given is functional.

The target in data set [11] is T2, Rac GTPase-activating protein 1 (Homo sapiens, UniProt Q9H0H5).
T2 sequence (Q9H0H5 whole entry): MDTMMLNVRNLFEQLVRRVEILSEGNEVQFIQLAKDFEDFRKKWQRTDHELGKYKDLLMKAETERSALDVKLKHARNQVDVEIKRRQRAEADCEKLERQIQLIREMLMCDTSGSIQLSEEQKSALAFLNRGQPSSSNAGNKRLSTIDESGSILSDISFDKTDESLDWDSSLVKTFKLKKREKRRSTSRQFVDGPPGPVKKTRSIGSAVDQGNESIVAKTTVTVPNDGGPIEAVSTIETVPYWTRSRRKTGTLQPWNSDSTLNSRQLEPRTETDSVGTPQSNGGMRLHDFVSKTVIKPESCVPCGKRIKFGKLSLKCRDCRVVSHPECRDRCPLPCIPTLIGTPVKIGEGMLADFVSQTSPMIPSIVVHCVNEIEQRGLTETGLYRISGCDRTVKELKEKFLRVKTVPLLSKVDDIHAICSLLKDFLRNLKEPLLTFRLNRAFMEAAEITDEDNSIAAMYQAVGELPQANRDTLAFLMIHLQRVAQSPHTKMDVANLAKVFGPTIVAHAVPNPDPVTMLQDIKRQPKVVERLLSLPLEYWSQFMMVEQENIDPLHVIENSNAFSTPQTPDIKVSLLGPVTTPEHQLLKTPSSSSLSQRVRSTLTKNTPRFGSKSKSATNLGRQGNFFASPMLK
The data set can be described thus: blockers of MgcRacGAP-driven Rac1 GTP hydrolysis – biochemical, ADP Hunter fluorescence, primary and confirmatory, confirmation (AID 624330). The class given is functional.

A further data set addresses Large T antigen (Simian virus 40, UniProt P03070). It counts as functional, Betapolyomavirus macacae.
For data set [12], the target named is T3, Hepatocyte nuclear factor 4-alpha (Homo sapiens, UniProt P41235).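 Further: biochemical luminescence-based dose-response counterscreen measuring inhibition of HNF4 dimerization, run alongside a screen for blockers of ABHD5–perilipin-5 interaction; split luciferase complementation of HNF4 fusion proteins in cell lysate measuring dimerization.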
T3 sequence (P41235 whole entry): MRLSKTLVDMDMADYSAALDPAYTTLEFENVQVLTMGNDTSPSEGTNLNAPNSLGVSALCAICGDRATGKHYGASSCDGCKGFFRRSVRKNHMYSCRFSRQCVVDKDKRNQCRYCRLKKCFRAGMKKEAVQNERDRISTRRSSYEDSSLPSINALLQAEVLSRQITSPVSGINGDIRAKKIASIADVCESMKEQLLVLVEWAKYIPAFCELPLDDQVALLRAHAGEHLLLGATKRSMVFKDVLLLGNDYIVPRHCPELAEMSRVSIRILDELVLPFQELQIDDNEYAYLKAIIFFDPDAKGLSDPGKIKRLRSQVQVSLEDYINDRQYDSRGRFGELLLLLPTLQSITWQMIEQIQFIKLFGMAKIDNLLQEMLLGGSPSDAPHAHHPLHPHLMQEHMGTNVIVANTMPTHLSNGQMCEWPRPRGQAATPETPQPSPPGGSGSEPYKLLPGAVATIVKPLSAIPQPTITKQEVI
The class given is functional, cell-based.

In data set [13] the target is Protein-tyrosine kinase 2-beta (Homo sapiens, UniProt Q14289).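 Further: potency of inhibitors of PYK2 kinase phosphorylation of poly-GT substrate.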
Data set [14] concerns the target Voltage-dependent T-type calcium channel subunit alpha-1H (Homo sapiens, UniProt O95180). It counts as functional.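 Further: channel activity triggered by adding a high calcium stimulation buffer.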
A short description of data set [15]: viability of uninfected HEp-2 cells – cell-based, HTS, cytotoxicity control for RSV inhibitor project, dose response (AID 2410). The class given is functional. The note with it: human respiratory syncytial virus.
Another data set deals with T4, Coagulation factor XII (Homo sapiens, UniProt P00748).
T4 sequence (P00748 whole entry): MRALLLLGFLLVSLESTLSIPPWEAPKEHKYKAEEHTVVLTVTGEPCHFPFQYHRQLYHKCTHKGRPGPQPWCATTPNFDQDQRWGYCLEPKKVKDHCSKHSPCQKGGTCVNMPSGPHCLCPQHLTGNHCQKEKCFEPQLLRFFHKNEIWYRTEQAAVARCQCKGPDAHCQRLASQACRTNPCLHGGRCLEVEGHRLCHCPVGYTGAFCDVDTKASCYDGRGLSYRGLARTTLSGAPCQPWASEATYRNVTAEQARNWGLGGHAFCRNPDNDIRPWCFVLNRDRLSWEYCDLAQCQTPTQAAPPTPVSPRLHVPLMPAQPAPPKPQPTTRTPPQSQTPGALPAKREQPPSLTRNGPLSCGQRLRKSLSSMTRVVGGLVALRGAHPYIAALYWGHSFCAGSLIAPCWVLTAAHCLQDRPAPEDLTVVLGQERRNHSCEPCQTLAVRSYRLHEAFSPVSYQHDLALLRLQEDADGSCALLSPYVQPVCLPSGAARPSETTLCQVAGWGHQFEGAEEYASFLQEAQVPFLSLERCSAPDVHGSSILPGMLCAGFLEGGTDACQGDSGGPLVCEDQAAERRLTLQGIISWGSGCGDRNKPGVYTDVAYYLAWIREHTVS
It counts as functional.

The target in another data set is Estrogen receptor beta (Homo sapiens, UniProt Q92731).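 Further: recombinant ER-beta bound to coactivator SRC1 peptide in presence of estradiol agonist; inhibitors block coactivator peptide binding and lower the FRET signal.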
Data set [16] can be described thus: rise of 4N DNA cells, HeLa – IC50, dose response (AID 1117351). It counts as functional, cell-based.
A short description of data set [17]: rise of 2N DNA cells, HeLa – IC50, dose response (AID 1117349). The class given is functional, cell-based.
The subject of a further data set is Streptococcus. In words: GAS UMAA2166 growth inhibition – luminescence, BacTiterGlo, counter-screen for streptokinase expression inhibitor project, dose response (AID 1915).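 Further: potency for reduction of bacterial viability or growth.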 It counts as functional, organism-based.
The subject of data set [18] is Streptococcus sp. 'group A'. The data set can be described thus: Streptococcus pyogenes SK(-)GAS viability under kanamycin – luminescence, BacTiterGlo, confirmation, counter-screen for streptokinase expression inhibitor project, dose response (AID 1900). The class given is functional, organism-based.
The test system of a further data set is INS1. The data set can be described thus: INS-1E survival protection against cytokine death – cell-based, luminescence, retest, dose response (AID 449756).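 Further: cell death triggered by IL-1 beta plus TNF-alpha plus IFN-gamma mixture; protective hits raise ATP signal compared with cytokine alone wells.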 It counts as functional. As to conditions: Rattus norvegicus.
The nature of data set [19]: microbe, parasite or virus in culture. It counts as functional. The note with it: Mycobacterium tuberculosis.
For the next data set, the target named is Cytochrome P450 2C19 (Homo sapiens, UniProt P33261). In words: Cytochrome panel assay with activity outcomes. Panel member name: p450-cyp2c19 Compounds with AC50 equal or less than 10 uM are considered active. It counts as functional.

The source made the active and inactive calls.

Sequence of Voltage-dependent T-type calcium channel subunit alpha-1H (O95180 whole entry): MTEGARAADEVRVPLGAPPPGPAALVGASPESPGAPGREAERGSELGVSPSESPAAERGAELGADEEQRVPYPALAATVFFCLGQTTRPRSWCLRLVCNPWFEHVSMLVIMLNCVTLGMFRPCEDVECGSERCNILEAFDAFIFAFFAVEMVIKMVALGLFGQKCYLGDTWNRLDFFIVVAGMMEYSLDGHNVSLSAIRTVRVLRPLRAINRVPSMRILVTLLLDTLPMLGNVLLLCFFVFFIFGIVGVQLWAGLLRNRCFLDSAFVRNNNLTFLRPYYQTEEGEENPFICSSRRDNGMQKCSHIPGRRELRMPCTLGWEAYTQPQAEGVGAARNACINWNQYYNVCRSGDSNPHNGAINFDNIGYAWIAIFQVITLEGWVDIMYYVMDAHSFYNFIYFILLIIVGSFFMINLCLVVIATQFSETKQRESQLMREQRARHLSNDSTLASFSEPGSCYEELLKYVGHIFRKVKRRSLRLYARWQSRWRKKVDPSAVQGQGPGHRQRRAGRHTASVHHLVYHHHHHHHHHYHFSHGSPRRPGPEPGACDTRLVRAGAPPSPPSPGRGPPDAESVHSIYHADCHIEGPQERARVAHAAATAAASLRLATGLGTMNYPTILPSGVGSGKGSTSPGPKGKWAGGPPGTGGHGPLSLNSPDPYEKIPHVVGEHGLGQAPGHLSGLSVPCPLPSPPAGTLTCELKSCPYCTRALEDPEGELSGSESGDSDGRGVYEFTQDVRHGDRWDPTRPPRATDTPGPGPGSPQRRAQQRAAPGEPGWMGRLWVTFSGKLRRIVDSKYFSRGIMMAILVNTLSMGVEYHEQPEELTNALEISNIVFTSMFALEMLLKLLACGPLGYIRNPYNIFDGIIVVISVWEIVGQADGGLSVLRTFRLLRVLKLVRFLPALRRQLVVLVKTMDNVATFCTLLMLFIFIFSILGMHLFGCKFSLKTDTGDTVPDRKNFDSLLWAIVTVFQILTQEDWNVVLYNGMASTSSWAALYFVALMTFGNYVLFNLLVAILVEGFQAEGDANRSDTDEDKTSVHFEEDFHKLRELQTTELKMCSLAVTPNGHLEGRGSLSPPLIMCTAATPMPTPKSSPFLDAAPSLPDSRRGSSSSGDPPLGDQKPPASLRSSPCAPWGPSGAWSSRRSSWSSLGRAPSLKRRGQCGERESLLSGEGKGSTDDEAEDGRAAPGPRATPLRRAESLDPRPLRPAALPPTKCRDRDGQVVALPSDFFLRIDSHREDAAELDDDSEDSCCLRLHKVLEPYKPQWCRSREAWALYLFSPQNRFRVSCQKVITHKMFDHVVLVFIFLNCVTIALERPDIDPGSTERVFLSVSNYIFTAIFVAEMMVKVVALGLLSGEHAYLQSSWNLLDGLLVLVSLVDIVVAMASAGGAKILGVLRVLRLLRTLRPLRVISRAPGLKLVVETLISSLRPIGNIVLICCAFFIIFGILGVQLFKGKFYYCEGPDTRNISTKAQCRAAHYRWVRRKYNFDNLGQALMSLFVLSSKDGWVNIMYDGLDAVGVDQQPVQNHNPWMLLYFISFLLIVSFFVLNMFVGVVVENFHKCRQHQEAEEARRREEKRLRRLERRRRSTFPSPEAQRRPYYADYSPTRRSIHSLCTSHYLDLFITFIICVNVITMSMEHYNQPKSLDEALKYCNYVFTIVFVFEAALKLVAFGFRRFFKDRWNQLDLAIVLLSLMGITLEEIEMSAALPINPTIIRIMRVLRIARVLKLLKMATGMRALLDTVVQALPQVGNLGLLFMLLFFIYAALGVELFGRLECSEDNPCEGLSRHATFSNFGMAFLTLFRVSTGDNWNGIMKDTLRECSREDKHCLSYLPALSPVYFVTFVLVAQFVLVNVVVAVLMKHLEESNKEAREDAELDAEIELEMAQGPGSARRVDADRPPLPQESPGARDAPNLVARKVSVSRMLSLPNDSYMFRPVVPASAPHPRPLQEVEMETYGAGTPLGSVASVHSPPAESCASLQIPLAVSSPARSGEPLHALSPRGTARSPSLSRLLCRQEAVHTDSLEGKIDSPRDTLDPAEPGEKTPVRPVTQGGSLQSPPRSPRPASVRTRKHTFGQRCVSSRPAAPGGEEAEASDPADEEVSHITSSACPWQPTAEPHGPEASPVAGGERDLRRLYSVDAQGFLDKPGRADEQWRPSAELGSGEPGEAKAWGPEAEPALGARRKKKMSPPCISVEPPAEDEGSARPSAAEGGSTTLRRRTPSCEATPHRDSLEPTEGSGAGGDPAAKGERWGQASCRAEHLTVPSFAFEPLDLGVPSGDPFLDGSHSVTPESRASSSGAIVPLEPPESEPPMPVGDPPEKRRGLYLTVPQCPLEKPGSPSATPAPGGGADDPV
Sequence of Protein-tyrosine kinase 2-beta (Q14289 whole entry): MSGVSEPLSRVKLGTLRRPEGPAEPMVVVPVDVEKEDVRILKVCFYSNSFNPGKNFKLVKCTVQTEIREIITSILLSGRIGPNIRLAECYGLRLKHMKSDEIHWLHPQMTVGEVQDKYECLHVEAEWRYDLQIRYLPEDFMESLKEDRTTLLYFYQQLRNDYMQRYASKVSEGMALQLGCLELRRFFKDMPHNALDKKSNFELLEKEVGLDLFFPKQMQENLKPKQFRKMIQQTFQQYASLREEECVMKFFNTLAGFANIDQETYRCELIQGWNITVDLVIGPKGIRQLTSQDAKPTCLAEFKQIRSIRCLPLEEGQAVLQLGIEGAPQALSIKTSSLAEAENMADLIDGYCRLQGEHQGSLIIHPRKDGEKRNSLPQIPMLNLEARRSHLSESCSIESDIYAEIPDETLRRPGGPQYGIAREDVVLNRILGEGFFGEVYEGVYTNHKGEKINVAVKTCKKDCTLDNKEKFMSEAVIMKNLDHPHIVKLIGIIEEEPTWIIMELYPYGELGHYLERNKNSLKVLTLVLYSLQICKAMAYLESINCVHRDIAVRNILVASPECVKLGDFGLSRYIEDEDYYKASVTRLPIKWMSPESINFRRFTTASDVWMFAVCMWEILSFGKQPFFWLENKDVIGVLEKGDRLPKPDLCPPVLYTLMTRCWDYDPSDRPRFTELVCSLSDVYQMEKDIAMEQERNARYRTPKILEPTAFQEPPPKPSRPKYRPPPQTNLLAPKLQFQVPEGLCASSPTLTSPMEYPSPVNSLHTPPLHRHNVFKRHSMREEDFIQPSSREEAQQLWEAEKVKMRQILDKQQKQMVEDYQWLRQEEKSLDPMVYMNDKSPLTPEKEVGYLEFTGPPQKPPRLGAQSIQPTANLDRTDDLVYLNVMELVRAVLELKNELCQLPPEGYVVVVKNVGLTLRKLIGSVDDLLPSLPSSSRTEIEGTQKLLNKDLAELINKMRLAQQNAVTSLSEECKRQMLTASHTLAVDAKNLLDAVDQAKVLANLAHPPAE
Sequence of Estrogen receptor beta (Q92731 whole entry): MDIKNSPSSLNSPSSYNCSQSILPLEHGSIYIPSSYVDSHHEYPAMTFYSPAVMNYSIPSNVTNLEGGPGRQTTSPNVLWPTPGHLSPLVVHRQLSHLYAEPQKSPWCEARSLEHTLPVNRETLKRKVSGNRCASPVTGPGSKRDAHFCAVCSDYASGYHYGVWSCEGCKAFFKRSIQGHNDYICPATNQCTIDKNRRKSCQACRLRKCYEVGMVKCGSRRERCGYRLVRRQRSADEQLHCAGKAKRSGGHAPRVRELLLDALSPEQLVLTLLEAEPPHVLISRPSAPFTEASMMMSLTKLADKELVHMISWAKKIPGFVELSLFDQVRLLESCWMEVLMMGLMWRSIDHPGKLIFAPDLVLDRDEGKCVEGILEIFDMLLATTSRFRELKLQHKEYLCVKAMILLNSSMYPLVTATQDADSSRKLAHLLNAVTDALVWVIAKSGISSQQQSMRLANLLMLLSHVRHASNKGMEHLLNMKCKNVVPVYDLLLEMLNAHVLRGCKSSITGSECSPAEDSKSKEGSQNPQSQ
Sequence of Large T antigen (P03070 whole entry, the tested form may be a part): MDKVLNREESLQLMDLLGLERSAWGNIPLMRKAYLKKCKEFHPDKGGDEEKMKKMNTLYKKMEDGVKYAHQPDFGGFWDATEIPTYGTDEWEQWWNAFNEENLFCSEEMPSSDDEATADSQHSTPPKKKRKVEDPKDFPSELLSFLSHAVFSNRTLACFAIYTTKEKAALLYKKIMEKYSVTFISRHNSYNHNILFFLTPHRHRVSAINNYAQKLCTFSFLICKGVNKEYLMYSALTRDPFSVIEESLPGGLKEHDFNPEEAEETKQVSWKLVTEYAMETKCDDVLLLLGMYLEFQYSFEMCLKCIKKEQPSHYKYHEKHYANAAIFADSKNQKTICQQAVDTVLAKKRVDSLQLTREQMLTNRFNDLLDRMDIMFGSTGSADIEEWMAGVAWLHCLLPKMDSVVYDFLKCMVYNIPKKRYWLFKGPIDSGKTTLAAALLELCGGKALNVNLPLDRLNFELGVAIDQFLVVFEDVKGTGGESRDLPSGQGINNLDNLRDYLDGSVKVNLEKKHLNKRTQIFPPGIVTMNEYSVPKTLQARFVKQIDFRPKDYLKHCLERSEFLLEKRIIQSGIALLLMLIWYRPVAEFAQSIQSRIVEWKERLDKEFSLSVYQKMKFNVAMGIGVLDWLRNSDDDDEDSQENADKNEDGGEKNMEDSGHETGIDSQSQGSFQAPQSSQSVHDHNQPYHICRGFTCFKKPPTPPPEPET
Sequence of Cytochrome P450 2C19 (P33261 whole entry): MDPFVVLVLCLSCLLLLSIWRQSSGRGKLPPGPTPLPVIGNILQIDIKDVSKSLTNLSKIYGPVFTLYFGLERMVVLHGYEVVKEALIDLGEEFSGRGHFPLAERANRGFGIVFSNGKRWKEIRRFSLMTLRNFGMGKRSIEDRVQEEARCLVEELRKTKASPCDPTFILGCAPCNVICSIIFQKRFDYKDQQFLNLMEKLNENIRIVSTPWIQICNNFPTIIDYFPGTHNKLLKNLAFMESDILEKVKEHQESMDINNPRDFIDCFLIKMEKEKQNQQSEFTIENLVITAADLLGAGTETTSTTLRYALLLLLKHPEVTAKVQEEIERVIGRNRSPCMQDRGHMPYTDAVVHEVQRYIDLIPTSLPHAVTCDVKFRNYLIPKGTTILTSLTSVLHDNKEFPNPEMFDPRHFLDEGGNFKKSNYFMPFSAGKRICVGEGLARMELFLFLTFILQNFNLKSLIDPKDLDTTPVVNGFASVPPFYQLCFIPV

With `CC1SC(NC(=O)c2ccncc2)=NC1=O` (configuration not stated), the EC50 in “cells [1]” and in “cells [2]” was > 350 µM (not active) in each case.
As for `O=C(O)c1ccccc1C(=O)NCC(O)c1ccccc1` (configuration not stated), the IC50 (in the data set “cells [3]”; in data set [4]) was > 29.9 µM (inactive) in each case. In addition, the EC50 was 5.05 µM (active) in data set [5] and > 29.9 µM (inactive) in the data set “cells [6]”.
On to `CCn1c(=O)cc(SCC(=O)N2CCC(C)CC2)c2ccccc21`, for which the EC50 is > 79.4 µM (inactive) in data set [7], > 79.4 µM (not active) in data set [9] and > 79.4 µM (not active) in data set [10]. Moreover, the IC50 in data set [8] is > 80 µM (inactive).
For `CCc1ccc2nc(Nc3nc(O)cc(COC)n3)nc(C)c2c1`, the IC50 in data set [8] was > 80 µM (inactive).
In the case of `O=S(=O)(NC1=NCCCCC1)c1ccc2sc(NS(=O)(=O)c3ccc4ccccc4c3)nc2c1`, the IC50 is 156 µM (active) in [11], 39.4 µM (active) at Large T antigen and 9.21 µM (active) in data set [12].
Take `CN1C(=O)c2cccc3c(S(=O)(=O)NCc4ccco4)ccc1c23`: in [13], the IC50 was > 69.5 µM (not active).
As to `CC(C)C(=O)Nc1ccc(NC(=O)c2ccc3c(c2)OCO3)cc1`, the IC50 in [8] was > 80 µM (inactive).
Take `Cc1cccc(C)c1NC(=O)C(c1ccc(Cl)cc1Cl)N1CCCCC1` (configuration not stated): in data set [14], the EC50 was 2.39 µM (active).
For `O=C(Nc1ccc(F)cc1)Nc1ccc(Oc2ncnc3cc(Cl)ccc23)nc1`, the IC50 in the data set “cells [3]” is > 29.9 µM (inactive); in data set [4], 0.373 µM (active). The EC50 (in data set [5]; in the data set “cells [6]”) was > 29.9 µM (inactive) throughout.
In the case of `COc1ccc(/C=C/C(=O)c2cc(F)ccc2OC(=O)c2ccc(OC)c(OC)c2)cc1OC`, the IC50 in data set [12] was 5.27 µM (active).
As for `CC(C)Oc1cc(NC(=O)C[S+]([O-])CC(=O)Nc2cccc(C(F)(F)F)c2)c(Cl)cc1Cl` (configuration not stated), in data set [14], the EC50 was 3.23 µM (active).
For the molecule `COc1ccc(N(C)C(=O)c2ccc3nc(-c4ccccc4)c(-c4ccccc4)nc3c2)cc1`, the EC50 in [14] was 3.17 µM (active). The CC50 in data set [15] is 12.8 µM (active).
Turning to `Cc1cc(C)cc(OCC(=O)Nc2ccc(N3CCCC3)cc2)c1`, the results for the IC50 (at Coagulation factor XII; on Estrogen receptor beta; in data set [13]) were > 50 µM (inactive), 1.56 µM (active) and 7.74 µM (active), respectively.
On to `CCCCc1c(-c2ccccc2OC)ncn1CCc1cccc(F)c1`, for which the IC50 is 15.3 µM (inactive) in “cells [3]” and 4.33 µM (active) in data set [4]. Further, the EC50 is 2.73 µM (active) in [5] and > 29.9 µM (inactive) in the data set “cells [6]”.
Take `CC[C@@H]([C@H](C)O)n1ncn(-c2ccc(N3CCN(c4ccc(OC[C@@H]5CO[C@@](Cn6cncn6)(c6ccc(F)cc6F)C5)cc4)CC3)cc2)c1=O`: the IC50 in data set [16] and in data set [17] was > 10 µM (inactive) each time.
As to `CCCCn1c(/C=N/Nc2nc3ccccc3[nH]2)nc2ccccc21`, the EC50 is 43.7 µM (active) in “cells [1]”, 3.74 µM (active) with Streptococcus, > 350 µM (not active) in the data set “cells [2]” and 1.66 µM (active) in [18]. Further, the AC50 in the data set with INS1 was 3.54 µM (active).
Take `C[C@]12CC[C@@H]3c4ccc(O)cc4CC[C@H]3[C@@H]1CC[C@@H]2OC(=O)CCC1CCCC1` [ESTRADIOL CYPIONATE]: the IC50 in [16] and in data set [17] was > 10 µM (inactive) in each case. Moreover, the CC50 in [19] was 30.6 µM (active).
`NCCc1ccc(O)cc1` [TYRAMINE]: on Cytochrome P450 2C19, the AC50 entry is reported as “inconclusive”. Further, the IC50 in “cells [3]” was > 29.9 µM (inactive); in data set [4], 0.882 µM (active). Further, the EC50 in [5] was 0.178 µM (active); in “cells [6]”, > 29.9 µM (inactive).

Values taken from ChEMBL document CHEMBL1201862, “PubChem BioAssay data set” (2004).
